According to US20240010606A1, “FUMARATE DERIVATIVES AND THEIR MEDICAL USE” (Sitryx Therapeutics Limited, priority 2020, published 2024):

Columns and labels:
IL-1β = assay: THP-1 AlphaLISA IL-1β cytokine assay; format: cell-based; settings: Homo sapiens, differentiated THP-1 cells
Procedure, shortened: (§1)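 THP-1 cells differentiated 72 h with PMA, pre-incubated 30 min with compounds, stimulated 24 h with LPS, then 1 h with nigericin, all at 37 °C. Supernatant cytokine measured by AlphaLISA; % inhibition normalised to ±LPS controls and IC50 taken from concentration-response curves.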

IL-6 = assay: THP-1 AlphaLISA IL-6 cytokine assay; format: cell-based; settings: Homo sapiens, THP-1, differentiated THP-1 cells
Procedure, shortened: as §1

NRF2 = NRF2 activation assay (DiscoverX PathHunter NRF2 translocation kit, U2OS cells); format: cell-based
Procedure, shortened: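 PathHunter U2OS cells, grown 24 h at 37 °C/5% CO2, treated 6 h with compound; NRF2 nuclear translocation read as enzyme-fragment-complementation chemiluminescence. Activation normalised to dimethyl fumarate high and untreated low controls; EC50 from concentration-response curve.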

[1] = Hepatocyte stability assay, human; format: in vitro ADME; settings: cryopreserved hepatocytes, 10 μM compound
Procedure, shortened: (§2)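 Cryopreserved hepatocytes (viability >70%) at 0.5×10^6 cells/mL in Leibovitz buffer, preincubated 10 min at 37 °C, then compound at 10 μM (0.1% DMSO) in duplicate; buffer-only incubations as control. Samples at 0-60 min quenched in acetonitrile, analysed by LC-MS/MS; half-life and CLint (μL min^−1 10^−6 cells) from ln % remaining versus time.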

hepatocytes [2] = assay: Hepatocyte stability assay, human; format: in vitro ADME; settings: 10 μM compound
Procedure, shortened: as §2

[3] = Hepatocyte stability assay, mouse; format: in vitro ADME; settings: mouse, cryopreserved hepatocytes, 10 μM compound
Procedure, shortened: as §2

hepatocytes [4] = assay: Hepatocyte stability assay, mouse; format: in vitro ADME; settings: 10 μM compound
Procedure, shortened: as §2

[5] = Table 2, compounds of formula (II)
[6] = +GSH, Table 4, compounds of formula (II)
[7] = −GSH, Table 4, compounds of formula (II)

`O=C(O)/C=C/C(=O)OC1(c2cccc(C(F)(F)F)c2)CCC1` [Intermediate 10, (E)-4-oxo-4-(1-(3-(trifluoromethyl)phenyl)cyclobutoxy)but-2-enoic acid] gave an IC50 (IL-1β; [5]) of 6 to 30 µM, an IC50 (IL-6; [5]) of 6 to 30 µM and an EC50 (NRF2; [6]) of under 23 µM. The “NRF2 activation Emax” value (NRF2; [6]) was “+++ (+++ means >114-150%)”, the EC50 (NRF2; [7]) was under 23 µM and the “NRF2 activation Emax” value (NRF2; [7]) was “+++ (+++ means >114-150%)”. The half-life at 10 μM ([1]; Table 6, read-out: T½) was 5 to 29 min, the CIint (hepatocytes [2]; Table 6) was “++ (++ means >30-110)” and the half-life at 10 μM ([3]; Table 6, read-out: T½) was 30 to 100 min. The CIint (hepatocytes [4]; Table 6) was “++ (++ means >30-110)”.
Compound `O=C(O)CCOC(=O)/C=C/C(=O)OC1CCCCCCC1` [Example 3, (E)-3-((4-(Cyclooctyloxy)-4-oxobut-2-enoyl)oxy)propanoic acid] has an IC50 (IL-1β; LPS then Nigericin, Table 1) of under 2.5 µM, an IC50 (IL-6; LPS then Nigericin, Table 1) of under 2.5 µM and an EC50 (NRF2; +GSH, Table 3) of 20 to 100 µM. The “NRF2 activation Emax” value (NRF2; +GSH, normalised to dimethyl fumarate high control, Table 3) was “++ (++ means 100-149)”, the EC50 (NRF2; −GSH, Table 3) was under 2 µM and the “NRF2 activation Emax” value (NRF2; −GSH, normalised to dimethyl fumarate high control, Table 3) was “++++ (++++ means 200-250%)”. The half-life at 10 μM ([1]; Table 5, read-out: T½) was 5 to 29 min, the CIint (hepatocytes [2]; Table 5) was “+++ (+++ means 50-149)” and the half-life at 10 μM ([3]; Table 5, read-out: T½) was under 5 min. The CIint (hepatocytes [4]; Table 5) was “+ (+ means >277)”.
`O=C(O)/C=C/C(=O)OC1(c2ccc(OC(F)(F)F)cc2)CCC1` [Intermediate 30, (E)-4-oxo-4-(1-(4-(trifluoromethoxy)phenyl)cyclobutoxy)but-2-enoic acid] gave an IC50 (IL-1β; [5]) of under 6 µM, an IC50 (IL-6; [5]) of 6 to 30 µM and an EC50 (NRF2; [6]) of 23 to 48.4 µM. For the same compound, the “NRF2 activation Emax” value (NRF2; [6]) was “++ (++ means >87-114%)”, the EC50 (NRF2; [7]) was under 23 µM and the “NRF2 activation Emax” value (NRF2; [7]) was “+++ (+++ means >114-150%)”. The half-life at 10 μM ([1]; Table 6, read-out: T½) was over 100 min, the CIint (hepatocytes [2]; Table 6) was “++++ (++++ means 5-15)” and the half-life at 10 μM ([3]; Table 6, read-out: T½) was 30 to 100 min. The CIint (hepatocytes [4]; Table 6) was “+++ (+++ means >15-30)”.
With `O=C(O)/C=C/C(=O)OC1(c2ccc(C(F)(F)F)c(F)c2)CCC1` [Intermediate 16, (E)-4-(1-(3-fluoro-4-(trifluoromethyl)phenyl)cyclobutoxy)-4-oxobut-2-enoic acid] the IC50 (IL-1β; [5]) was under 6 µM, the IC50 (IL-6; [5]) was under 6 µM and the EC50 (NRF2; [6]) was under 23 µM. The “NRF2 activation Emax” value (NRF2; [6]) was “+++ (+++ means >114-150%)”, the EC50 (NRF2; [7]) was under 23 µM and the “NRF2 activation Emax” value (NRF2; [7]) was “++++ (++++ means >150%)”. For the same compound, the half-life at 10 μM ([1]; Table 6, read-out: T½) was over 100 min, the CIint (hepatocytes [2]; Table 6) was “+++ (+++ means >15-30)” and the half-life at 10 μM ([3]; Table 6, read-out: T½) was 30 to 100 min. The CIint (hepatocytes [4]; Table 6) was “+++ (+++ means >15-30)”.
